Assay: xn = mol fraction of the nth substance listed
Settings: 101 kPa

CCCC[n+]1ccn(C)c1.[Cl-] + CC#N
Settings | electrical conductivity [S/m] | viscosity [mPa·s]
293.15 K, x2 = 0.5028 | – | 111
293.15 K, x2 = 0.5548 | – | 60.5
293.15 K, x2 = 0.6007 | – | 38.5
293.15 K, x2 = 0.7003 | – | 11.9
293.15 K, x2 = 0.8 | – | 3.9
293.15 K, x2 = 0.9002 | – | 1.17
293.15 K, x2 = 0.9499 | – | 0.69
298.15 K, x2 = 0.502 | 0.29 | 76
298.15 K, x2 = 0.5483 | 0.4 | 53.6
298.15 K, x2 = 0.6038 | 0.578 | 28.4
298.15 K, x2 = 0.7021 | 1.03 | 10
298.15 K, x2 = 0.9002 | 1.9 | 1.12
298.15 K, x2 = 0.9499 | 1.7 | 0.63
298.15 K, x2 = 0.975 | 1.3 | 0.46
303.15 K, x2 = 0.5065 | – | 63.1
303.15 K, x2 = 0.5524 | – | 40.2
303.15 K, x2 = 0.6025 | – | 25.5
303.15 K, x2 = 0.7003 | – | 9.3
303.15 K, x2 = 0.8007 | – | 3.4
303.15 K, x2 = 0.9002 | – | 1.06
303.15 K, x2 = 0.9499 | – | 0.57
308.15 K, x2 = 0.5028 | – | 55.4
308.15 K, x2 = 0.5548 | – | 33.3
308.15 K, x2 = 0.6007 | – | 22
308.15 K, x2 = 0.7003 | – | 8.5
308.15 K, x2 = 0.8 | – | 3.04
308.15 K, x2 = 0.9002 | – | 1.02
308.15 K, x2 = 0.9499 | – | 0.53

CC#N + CCCC[n+]1ccn(C)c1.[Cl-]
x1 = 1
Settings | viscosity [mPa·s]
293.15 K | 0.36
298.15 K | 0.35
303.15 K | 0.32

CCO + CCCC[n+]1ccn(C)c1.[Cl-]
x1 = 1
Settings | viscosity [mPa·s]
293.15 K | 1.19
298.15 K | 1.08
308.15 K | 0.89

CN(C)C=O + CCCC[n+]1ccn(C)c1.[Cl-]
x1 = 1
Settings | viscosity [mPa·s]
293.15 K | 0.86
298.15 K | 0.8
303.15 K | 0.78
308.15 K | 0.73

CO + CCCC[n+]1ccn(C)c1.[Cl-]
x1 = 1
Settings | viscosity [mPa·s]
293.15 K | 0.61
298.15 K | 0.55
303.15 K | 0.51

O + CCCC[n+]1ccn(C)c1.[Cl-]
x1 = 1
Settings | viscosity [mPa·s]
293.15 K | 1.01
298.15 K | 0.89
303.15 K | 0.8
308.15 K | 0.72

CCCC[n+]1ccn(C)c1.[Cl-] + CCO
Settings | electrical conductivity, 298.15 K [S/m] | viscosity, 293.15 K [mPa·s] | viscosity, 298.15 K [mPa·s] | viscosity, 303.15 K [mPa·s] | viscosity, 308.15 K [mPa·s]
x2 = 0.4991 | 0.326 | 75 | 61.4 | – | 38.3
x2 = 0.5533 | 0.483 | 47.9 | 37.5 | 31.1 | 25.6
x2 = 0.6011 | 0.648 | 30.6 | 23.8 | – | 17
x2 = 0.7003 | – | 12.1 | – | 9.2 | 8.2
x2 = 0.8002 | – | 5.23 | – | 4.25 | 3.84
x2 = 0.9 | 1.38 | 2.46 | 2.24 | 2.06 | 1.92
x2 = 0.9501 | 0.927 | – | 1.62 | – | 1.35
x2 = 0.975 | 0.52 | – | 1.29 | – | –

CCCC[n+]1ccn(C)c1.[Cl-] + CN(C)C=O
Settings | electrical conductivity [S/m] | viscosity [mPa·s]
293.15 K, x2 = 0.5025 | – | 77
293.15 K, x2 = 0.5565 | – | 49.1
293.15 K, x2 = 0.6003 | – | 33.9
293.15 K, x2 = 0.6996 | – | 16.9
293.15 K, x2 = 0.8014 | – | 5.1
293.15 K, x2 = 0.95 | – | 1.32
298.15 K, x2 = 0.501 | 0.218 | 64
298.15 K, x2 = 0.6134 | 0.439 | 24
298.15 K, x2 = 0.6994 | 0.592 | 11.4
298.15 K, x2 = 0.8017 | 0.857 | 4.44
298.15 K, x2 = 0.9 | 0.922 | 1.88
298.15 K, x2 = 0.9502 | 0.766 | 1.21
303.15 K, x2 = 0.552 | – | 34.5
303.15 K, x2 = 0.7005 | – | 9.5
303.15 K, x2 = 0.9 | – | 1.73
308.15 K, x2 = 0.5007 | – | 39.9
308.15 K, x2 = 0.5564 | – | 25.5
308.15 K, x2 = 0.6001 | – | 17.5
308.15 K, x2 = 0.7 | – | 7.8
308.15 K, x2 = 0.95 | – | 1.04

CCCC[n+]1ccn(C)c1.[Cl-] + CO
Settings | electrical conductivity [S/m] | viscosity [mPa·s]
293.15 K, x2 = 0.6026 | – | 23.2
293.15 K, x2 = 0.7002 | – | 8.4
293.15 K, x2 = 0.8008 | – | 3.41
293.15 K, x2 = 0.8999 | – | 1.63
293.15 K, x2 = 0.95 | – | 0.95
298.15 K, x2 = 0.5213 | 0.632 | 37.6
298.15 K, x2 = 0.5458 | 0.777 | 32.5
298.15 K, x2 = 0.5925 | 1.08 | 20.4
298.15 K, x2 = 0.7996 | 3.46 | 3.25
298.15 K, x2 = 0.9007 | 4.08 | 1.38
298.15 K, x2 = 0.95 | 3.32 | 0.88
298.15 K, x2 = 0.975 | 2.24 | 0.68
303.15 K, x2 = 0.5173 | – | 36.4
303.15 K, x2 = 0.6044 | – | 16
303.15 K, x2 = 0.7993 | – | 2.86
303.15 K, x2 = 0.8999 | – | 1.25
303.15 K, x2 = 0.95 | – | 0.85
308.15 K, x2 = 0.5001 | – | 34.5
308.15 K, x2 = 0.5458 | – | 23.7
308.15 K, x2 = 0.6026 | – | 14.9
308.15 K, x2 = 0.7001 | – | 6.6
308.15 K, x2 = 0.8008 | – | 2.76

CCCC[n+]1ccn(C)c1.[Cl-] + O
Settings | electrical conductivity, 298.15 K [S/m] | viscosity, 293.15 K [mPa·s] | viscosity, 298.15 K [mPa·s] | viscosity, 303.15 K [mPa·s] | viscosity, 308.15 K [mPa·s]
x2 = 0.4982 | 0.32 | – | 163 | 118 | –
x2 = 0.5535 | 0.502 | 141 | 105 | 83 | 61.6
x2 = 0.6132 | 0.844 | 86 | 64.5 | 50.4 | 38.7
x2 = 0.7033 | 1.54 | 39.4 | 30.4 | 24.5 | 20
x2 = 0.8034 | – | 15.5 | – | 10.5 | 8.69
x2 = 0.8999 | 5.31 | 5.3 | 4.38 | – | 3.3
x2 = 0.9502 | 5.98 | – | 2.22 | 1.94 | 1.74
x2 = 0.975 | 4.98 | – | 1.52 | – | –

Source: a compilation of properties of binary mixtures (doi:10.1016/j.jiec.2013.02.010)
